Experimental data published in patent publication US20240279221A1, “HETEROCYCLIC COMPOUNDS AND METHODS OF USE” (Schrödinger, Inc., priority 2021, published 2024).

target: SOS1:KRAS (G12C) interaction (Homo sapiens (Human), UniProt Q07889); experiment: SOS1-KRas(G12C) FRET Assay; type: binding; conditions: 0.5 nM His10-SOS1 (res. 564-1049), 2.5 nM GST-KRAS (res. 1-169, G12C); read-out: SOS-KRas(G12C) FRET IC50
Procedure: Inhibition of the SOS1:KRAS interaction was measured using purified GST-tagged KRAS (res. 1-169, G12C, purified based on Hillig, et al., Proc Natl Acad Sci USA (2019); 116(7):2551-2560) and recombinant His10-SOS1 (res. 564-1049; purified based on Hillig, et al.). The final assay was performed at 20 uL with 0.5 nM SOS1 protein and 2.5 nM KRAS protein in a buffer of PBS, 0.1% BSA, 5 mM MgCl2, 0.0025% Igepal, 100 mM KF, 5 mM DTT in a white 384 square well OptiPlate (PerkinElmer, Cat. 6007290). A 2× KRAS working solution was prepared in an assay buffer containing 5 nM GST-KRAS G12C and 2 nM anti-GST-Eu(K) (Cisbio, Cat. 61GSTKLA) and pre-incubated for 15 minutes at 25° C. Compounds were serially diluted in 100% DMSO from 2 mM (positive control, compound I-13, PCT Publ. No. WO2018/115380) or 20 mM and then diluted 1:20 in assay buffer before incubation with a solution of SOS1 protein mixed 1:5 with anti-6His-XL665 FRET donor (Cisbio, Cat. 61HISXL) for 15 minutes at 25° C. before addition of 2× KRAS working solution. The final DMSO concentration is 0.5%. Plates were incubated at RT for 2 hrs before the FRET signal was measured using Envision at emission 665 nm and 615 nm. FRET signal was converted to percentage of protein-protein interaction using the following equation:
[formula] • C: signal with compound treatment • P: signal for positive control (DMSO) • N: signal for negative control (no SOS1 added) • IC50 and Hill coefficients were obtained using Graph Pad Prism (Graph Pad software, Inc, USA) with non-linear regression analysis.

SOS1:KRAS (G12C) interaction, sequence (Q07889 564-1049, stated change not applied): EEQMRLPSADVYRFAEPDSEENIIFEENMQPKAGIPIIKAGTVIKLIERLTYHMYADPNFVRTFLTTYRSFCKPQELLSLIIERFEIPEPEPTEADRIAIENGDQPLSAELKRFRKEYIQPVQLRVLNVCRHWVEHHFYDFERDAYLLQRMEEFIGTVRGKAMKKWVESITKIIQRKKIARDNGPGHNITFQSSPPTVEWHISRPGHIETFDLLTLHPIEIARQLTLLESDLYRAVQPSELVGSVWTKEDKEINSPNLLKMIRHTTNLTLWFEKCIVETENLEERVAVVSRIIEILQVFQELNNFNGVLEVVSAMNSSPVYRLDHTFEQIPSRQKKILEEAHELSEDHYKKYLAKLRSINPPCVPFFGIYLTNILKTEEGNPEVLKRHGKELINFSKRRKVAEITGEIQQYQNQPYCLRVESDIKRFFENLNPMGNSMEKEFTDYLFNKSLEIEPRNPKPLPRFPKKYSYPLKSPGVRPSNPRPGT

Going from `C[C@@H](Nc1nn(C)c(=O)c2cc(=O)n([C@@H]3C[C@H]3C(F)(F)F)cc12)c1cccc(C(F)F)c1F` (single isomer, unassigned) [Example 138] to `C[C@@H](Nc1nn(C)c(=O)c2cc(=O)n([C@@H]3CC3(C)C)cc12)c1cccc(C(F)F)c1F` (single isomer, unassigned) [Example 132], the IC50 falls from 434 nM to 152 nM (2.9-fold). The second is the more potent here.

Going from `C[C@@H](Nc1nn(C)c(=O)c2cc(=O)n([C@]3(C(F)(F)F)CCNC3)cc12)c1cccc(C(F)F)c1F` (single isomer, unassigned) [Example 95] to `C[C@@H](Nc1nn(C)c(=O)c2cc(=O)n([C@@]3(C(F)(F)F)CCOC3)cc12)c1cccc(C(F)F)c1F` (single isomer, unassigned) [Example 164], the IC50 falls from 394 nM to 19.3 nM (20-fold). The second is the more potent here.

Compared with `C[C@@H](Nc1nn(C)c(=O)c2cc(=O)n(C3(C)CNC3)cc12)c1cccc(C(F)F)c1F` [Example 152, (R)-4-((1-(3-(difluoromethyl)-2-fluorophenyl)ethyl)amino)-2-methyl-6-(3-methylazetidin-3-yl)pyrido[3,4-d]pyridazine-1,7(2H,6H)-dione], `C[C@@H](Nc1nn(C)c(=O)c2cc(=O)n(C3(C(C)(F)F)CC3)cc12)c1cccc(C(F)F)c1F` [Example 126, (R)-6-(1-(1,1-difluoroethyl)cyclopropyl)-4-((1-(3-(difluoromethyl)-2-fluorophenyl)ethyl)amino)-2-methyl-2,6-dihydropyrido[3,4-d]pyridazine-1,7-dione] is 3.7-fold lower in IC50: 248 nM for the first, 67.8 nM for the second. The second is the more potent here.

`C[C@@H](Nc1nn(C)c(=O)c2c(OC3COC3)c(=O)n(C3(C(F)F)CC3)cc12)c1cccc(C(F)F)c1F` [Example 88, (R)-4-((1-(3-(difluoromethyl)-2-fluorophenyl)ethyl)amino)-6-(1-(difluoromethyl)cyclopropyl)-2-methyl-8-(oxetan-3-yloxy)pyrido[3,4-d]pyridazine-1,7(2H,6H)-dione] and `C[C@@H](Nc1nn(C)c(=O)c2c(O[C@H]3C[C@H](F)C3)c(=O)n(C3(C(F)F)CC3)cc12)c1cccc(C(F)F)c1F` [Example 89, 4-(((R)-1-(3-(difluoromethyl)-2-fluorophenyl)ethyl)amino)-6-(1-(difluoromethyl)cyclopropyl)-8-((1r,3R)-3-fluorocyclobutoxy)-2-methylpyrido[3,4-d]pyridazine-1,7(2H,6H)-dione] are within 1.5-fold of each other in IC50: 83.5 nM for the first, 122 nM for the second.

`C[C@@H](Nc1nn(C)c(=O)c2cc(=O)n([C@@H]3CC34CCC(F)(F)CC4)cc12)c1cccc(C(F)F)c1F` (single isomer, unassigned) [Example 131] and `C[C@@H](Nc1nn(C)c(=O)c2cc(=O)n([C@@H]3CC34CC4)cc12)c1cccc(C(F)F)c1F` (single isomer, unassigned) [Example 128] are within 1.5-fold of each other in IC50: 277 nM for the first, 287 nM for the second.

`C[C@@H](Nc1nn(C)c(=O)c2cc(=O)n([C@@]3(C(F)(F)F)CCN(C)C3)cc12)c1cccc(C(F)F)c1F` (single isomer, unassigned) [Example 97] and `C[C@@H](Nc1nn(C)c(=O)c2cc(=O)n(C3(C(F)(F)F)COC3)cc12)c1cccc(C(F)F)c1F` [Example 156, (R)-4-((1-(3-(difluoromethyl)-2-fluorophenyl)ethyl)amino)-2-methyl-6-(3-(trifluoromethyl)oxetan-3-yl)-2,6-dihydropyrido[3,4-d]pyridazine-1,7-dione] are within 1.5-fold of each other in IC50: 65.6 nM for the first, 66.6 nM for the second.

First: COC(C)(C)C(F)(F)c1cccc([C@@H](C)Nc2nn(C)c(=O)c3cc(=O)n(C4(C(F)F)CC4)cc23)c1F [Example 110, (R)-4-((1-(3-(1,1-difluoro-2-methoxy-2-methylpropyl)-2-fluorophenyl)ethyl)amino)-6-(1-(difluoromethyl)cyclopropyl)-2-methyl-2,6-dihydropyrido[3,4-d]pyridazine-1,7-dione]
Second: C[C@@H](Nc1nn(C)c(=O)c2cc(=O)n(C3(C(F)F)CC3)cc12)c1cccc(C(F)(F)c2ccncc2)c1F [Example 174, (R)-4-((1-(3-(difluoro(pyridin-4-yl)methyl)-2-fluorophenyl)ethyl)amino)-6-(1-(difluoromethyl)cyclopropyl)-2-methyl-2,6-dihydropyrido[3,4-d]pyridazine-1,7-dione]
The IC50 of the first is 11-fold higher: 48.1 nM for the first, 4.4 nM for the second.

First: C[C@@H](Nc1nn(C)c(=O)c2cc(=O)n(C3(C(F)F)CC3)cc12)c1cccc2c(F)coc12 [Example 163, (R)-6-(1-(difluoromethyl)cyclopropyl)-4-((1-(3-fluorobenzofuran-7-yl)ethyl)amino)-2-methyl-2,6-dihydropyrido[3,4-d]pyridazine-1,7-dione]
Second: CC(=O)N1CC(C(F)F)(n2cc3c(N[C@H](C)c4cccc(C(F)F)c4F)nn(C)c(=O)c3cc2=O)C1 [Example 154, (R)-6-(1-acetyl-3-(difluoromethyl)azetidin-3-yl)-4-((1-(3-(difluoromethyl)-2-fluorophenyl)ethyl)amino)-2-methylpyrido[3,4-d]pyridazine-1,7(2H,6H)-dione]
The IC50 of the first is 4.1-fold higher: 75.6 nM for the first, 18.5 nM for the second. The second is the more potent here.

First: C[C@@H](Nc1nn(C)c(=O)c2cc(=O)n(C3CC3)cc12)c1ccc2ccccc2c1 [Example 182, (R)-6-cyclopropyl-2-methyl-4-((1-(naphthalen-2-yl)ethyl)amino)-2,6-dihydropyrido[3,4-d]pyridazine-1,7-dione]
Second: C[C@H](Nc1nn(C)c(=O)c2cc(=O)n(C3CC3)cc12)c1cccc2sccc12 [Example 65, (S)-4-((1-(benzo[b]thiophen-4-yl)ethyl)amino)-6-cyclopropyl-2-methyl-2,6-dihydropyrido[3,4-d]pyridazine-1,7-dione]
The IC50 of the first is lower: 2440 nM for the first, > 100000 nM for the second. The first is the more potent here.

First: C[C@@H](Nc1nn(C)c(=O)c2c(OCCN(C)C)c(=O)n(C3(C(F)F)CC3)cc12)c1cccc(C(F)F)c1F [Example 86, (R)-4-((1-(3-(difluoromethyl)-2-fluorophenyl)ethyl)amino)-6-(1-(difluoromethyl)cyclopropyl)-8-(2-(dimethylamino)ethoxy)-2-methyl-2,6-dihydropyrido[3,4-d]pyridazine-1,7-dione]
Second: C[C@@H](Nc1nn(C)c(=O)c2c(OC3CC(F)(F)C3)c(=O)n(C3(C(F)F)CC3)cc12)c1cccc(C(F)F)c1F [Example 87, (R)-8-(3,3-difluorocyclobutoxy)-4-((1-(3-(difluoromethyl)-2-fluorophenyl)ethyl)amino)-6-(1-(difluoromethyl)cyclopropyl)-2-methylpyrido[3,4-d]pyridazine-1,7(2H,6H)-dione]
The IC50 of the first is 3.3-fold lower: 35.3 nM for the first, 118 nM for the second. The first is the more potent here.

Compared with `C[C@@H](Nc1nn(C)c(=O)c2cc(=O)n(C3CC3)cc12)c1ccc2c(c1)CCCC2` [Example 101, (R)-6-cyclopropyl-2-methyl-4-((1-(5,6,7,8-tetrahydronaphthalen-2-yl)ethyl)amino)-2,6-dihydropyrido[3,4-d]pyridazine-1,7-dione], `CC(Nc1nn(C)c(=O)c2cc(=O)n(C3CC3)cc12)c1cc(F)cc(C(F)(F)F)c1` (stereo not shown) [Example 159, 6-cyclopropyl-4-((1-(3-fluoro-5-(trifluoromethyl)phenyl)ethyl)amino)-2-methylpyrido[3,4-d]pyridazine-1,7(2H,6H)-dione] is lower in IC50: > 100000 nM for the first, 3480 nM for the second. The second is the more potent here.

First: Cc1c([C@@H](C)Nc2nn(C)c(=O)c3cc(=O)n(C4CCN(C)CC4)cc23)cccc1C(F)(F)F [Example 23, (R)-2-methyl-4-((1-(2-methyl-3-(trifluoromethyl)phenyl)ethyl)amino)-6-(1-methylpiperidin-4-yl)-2,6-dihydropyrido[3,4-d]pyridazine-1,7-dione]
Second: CNC(=O)C(F)(F)c1cccc([C@@H](C)Nc2nn(C)c(=O)c3cc(=O)n(C4CC4)cc23)c1F [Example 107, (R)-2-(3-(1-((6-cyclopropyl-2-methyl-1,7-dioxo-1,2,6,7-tetrahydropyrido[3,4-d]pyridazin-4-yl)amino)ethyl)-2-fluorophenyl)-2,2-difluoro-N-methylacetamide]
The IC50 of the first is 7.2-fold higher: 1950 nM for the first, 271 nM for the second. The second is the more potent here.

First: C[C@@H](Nc1nn(C)c(=O)c2cc(=O)n([C@]34COC[C@H]3C4)cc12)c1cccc(C(F)F)c1F [Example 148, 4-[[(1R)-1-[3-(difluoromethyl)-2-fluoro-phenyl]ethyl]amino]-2-methyl-6-[(1S,5S)-3-oxabicyclo[3.1.0]hexan-1-yl]pyrido[3,4-d]pyridazine-1,7-dione]
Second: CC(=O)N1CC2(n3cc4c(N[C@H](C)c5cccc(C(F)F)c5F)nn(C)c(=O)c4cc3=O)CC1C2 [Example 146, (R)-6-(2-acetyl-2-azabicyclo[2.1.1]hexan-4-yl)-4-((1-(3-(difluoromethyl)-2-fluorophenyl)ethyl)amino)-2-methyl-2,6-dihydropyrido[3,4-d]pyridazine-1,7-dione]
The IC50 of the first is 1.7-fold lower: 40.5 nM for the first, 70.6 nM for the second.

Compared with `C[C@@H](Nc1nn(C)c(=O)c2cc(=O)n([C@@H]3C[C@H]3c3cncc(F)c3)cc12)c1cccc(C(F)F)c1F` (single isomer, unassigned) [Example 94], `CC(=O)N1CC[C@@](n2cc3c(N[C@H](C)c4cccc5c4OCC5(F)F)nn(C)c(=O)c3cc2=O)(C(F)(F)F)C1` (single isomer, unassigned) [Example 170] is 58-fold lower in IC50: 378 nM for the first, 6.5 nM for the second.
